In the supplement of paper PMC7108870 one finds drug sensitivity score data, which are given here for 21 compounds.

Test [1] concerns HEK293sieSTAT3(Y640F). As to the kind of experiment: drug sensitivity score (DSS), cytotoxicity CellTox Green (DSS (dimensionless)); higher = more cytotoxic; extreme values may be limits of the assay. To be noted: 72 h; STAT3 variant: Y640F (constitutively active). In a few lines:
(§1)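 A drug sensitivity score, based on the area of the dose-response curve, was calculated in Breeze after normalising values to negative and positive control wells. It came from HEK293 cells carrying a STAT3-dependent luciferase reporter and overexpressing wild-type or mutant STAT3, plated at 20 μl of 100,000 cells/ml onto compounds acoustically pre-plated at 5 concentrations in 10-fold dilutions in 384-well plates. Following 72 hours at 37°C and 5% CO2, CellTox Green fluorescence (485/520 nm) and then CellTiter-Glo luminescence were read on a PHERAstar FS.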

The test system of test [2] is HEK293sieSTAT3(wt). The test is described as above. The conditions noted are these: 72 h; STAT3 variant: wild type. In a few lines:
as §1

Test [3] deals with HEK293sieSTAT3(Y640F). As to the kind of experiment: drug sensitivity score (DSS), viability CellTiter-Glo (DSS (dimensionless)); higher = more growth inhibition; extreme values may be limits of the assay. The conditions noted are these: 72 h; STAT3 variant: Y640F (constitutively active). A digest of the protocol: as §1
The test system of test [4] is HEK293sieSTAT3(wt). The test is described as above. The conditions noted are these: 72 h; STAT3 variant: wild type. A digest of the protocol:
as §1

Molecules are shown by their SMILES.

As for `CCN1CCN(c2ccc(Nc3cc(N(C)C(=O)Nc4c(Cl)c(OC)cc(OC)c4Cl)ncn3)cc2)CC1` [NVP-BGJ398] (top concentration tested 1000 nM), the drug sensitivity score in test [1] came to 0; in test [2], 2.48; in test [3], 0.2; in test [4], 0.

On to `COc1ccc(-c2ccc3ncc4c(c3c2)n(-c2ccc(N3CCNCC3)c(C(F)(F)F)c2)c(=O)n4C)cn1` [NVP-BGT226] (top concentration tested 1000 nM), for which the drug sensitivity score amounted to 4.28 in test [1], 9.37 in test [2], 24.6 in test [3] and 28 in test [4].

On to `CNC(=O)c1ccc(-c2cnc3ncc(Cc4ccc5ncccc5c4)n3n2)cc1F` [NVP-INC280] (top concentration tested 1000 nM), for which the drug sensitivity score worked out at 0 in test [1], 0 in test [2], 3.02 in test [3] and 2.77 in test [4].

For `CC1(C)CCC(c2ccc(Cl)cc2)=C(CN2CCN(c3ccc(C(=O)NS(=O)(=O)c4ccc(N[C@H](CCN5CCOCC5)CSc5ccccc5)c(S(=O)(=O)C(F)(F)F)c4)cc3)CC2)C1` [Navitoclax] (top concentration tested 10000 nM), the drug sensitivity score in test [1], in test [2], in test [3] and in test [4] was 0 in each case.

As for `COc1nc(N)nc2c1ncn2[C@@H]1O[C@H](CO)[C@@H](O)[C@@H]1O` [Nelarabine] (top concentration tested 10000 nM), the drug sensitivity score in test [1] came to 0; in test [2] it was 0; in test [3] it was 0.7; in test [4], 1.07.

On to `CCOc1cc2ncc(C#N)c(Nc3ccc(OCc4ccccn4)c(Cl)c3)c2cc1NC(=O)/C=C/CN(C)C` [Neratinib] (top concentration tested 1000 nM), for which the drug sensitivity score was 0 in test [1], 0 in test [2], 3.35 in test [3] and 1.99 in test [4].

As to `Cc1cn(-c2cc(NC(=O)c3ccc(C)c(Nc4nccc(-c5cccnc5)n4)c3)cc(C(F)(F)F)c2)cn1` [Nilotinib] (top concentration tested 10000 nM), the drug sensitivity score was 0.16 in test [1], 0 in test [2], 3.13 in test [3] and 3.74 in test [4].

On to `CC1(C)NC(=O)N(c2ccc([N+](=O)[O-])c(C(F)(F)F)c2)C1=O` [Nilutamide] (top concentration tested 10000 nM), for which the drug sensitivity score in test [1] worked out at 0; in test [2], 0.74; in test [3], 2.68; in test [4], 0.69.

For the compound `COC(=O)c1ccc2c(c1)NC(=O)/C2=C(\Nc1ccc(N(C)C(=O)CN2CCN(C)CC2)cc1)c1ccccc1` [Nintedanib] (top concentration tested 10000 nM), the drug sensitivity score was 3.45 in test [1], 6.55 in test [2], 8 in test [3] and 9.79 in test [4].

Turning to `NC(=O)c1cccc2cn(-c3ccc([C@@H]4CCCNC4)cc3)nc12` [Niraparib] (top concentration tested 10000 nM), the drug sensitivity score in test [1] was 1.69; in test [2] it was 9.84; in test [3], 8.57; in test [4], 13.3.

With `COc1ccc(C2=N[C@@H](c3ccc(Cl)cc3)[C@@H](c3ccc(Cl)cc3)N2C(=O)N2CCNC(=O)C2)c(OC(C)C)c1` [Nutlin-3] (top concentration tested 10000 nM), the drug sensitivity score in test [1] came out at 0.07; in test [2], 0.87; in test [3] it was 1.89; in test [4] it was 1.15.

As to `COc1cccc2cc(-c3nc([C@H]4CC[C@H](C(=O)O)CC4)n4ncnc(N)c34)[nH]c12` [OSI-027] (top concentration tested 10000 nM), the drug sensitivity score turned out to be 0 in test [1], 0 in test [2], 7.79 in test [3] and 6.8 in test [4].

Turning to `O=C(Nc1ccc(OC(F)(F)F)cc1)c1sccc1NCc1ccnc2ccccc12` [OSI-930] (top concentration tested 2500 nM), the drug sensitivity score in test [1] is 0; in test [2] it was 0; in test [3] it was 0.46; in test [4], 1.31.

On to `CC(=O)c1cnc2ccc(-c3cc(Cl)c(O)c(Cl)c3)nc2c1N[C@H]1CC[C@H](CN(C)C)CC1` [OTSSP167] (top concentration tested 1000 nM), for which the drug sensitivity score in test [1] was determined as 5.22; in test [2], 5.73; in test [3], 21.1; in test [4] it was 21.2.

On to `Cc1sc2c(c1C)C(c1ccc(Cl)cc1)=N[C@@H](CC(=O)Nc1ccc(O)cc1)c1nnc(C)n1-2` [OTX015] (top concentration tested 10000 nM), for which the drug sensitivity score was 3.12 in test [1], 10.9 in test [2], 12.2 in test [3] and 10.5 in test [4].

Consider `COC1=CC(c2cc3ccccc3[nH]2)=N/C1=C\c1[nH]c(C)cc1C` [Obatoclax] (top concentration tested 10000 nM), for which the drug sensitivity score came to 0 in test [1], 0 in test [2], 1.57 in test [3] and 2.27 in test [4].

As to `O=C(c1cc(Cc2n[nH]c(=O)c3ccccc23)ccc1F)N1CCN(C(=O)C2CC2)CC1` [Olaparib] (top concentration tested 10000 nM), the drug sensitivity score came to 0 in test [1], 0.67 in test [2], 4.22 in test [3] and 3.58 in test [4].

With `COC(=O)C[C@](O)(CCCC(C)(C)O)C(=O)O[C@@H]1C(OC)=C[C@]23CCCN2CCc2cc4c(cc2[C@H]13)OCO4` [Omacetaxine] (top concentration tested 10000 nM), the drug sensitivity score worked out at 1.64 in test [1], 3.27 in test [2], 28.9 in test [3] and 32.9 in test [4].

As to `COc1ncc(-c2ccc3nccc(-c4ccnnc4)c3c2)cc1NS(=O)(=O)c1ccc(F)cc1F` [Omipalisib] (top concentration tested 1000 nM), the drug sensitivity score in test [1] was 0; in test [2] it was 6.37; in test [3], 18.3; in test [4] it was 22.1.

In the case of `CC(C)c1cc(C(=O)N2Cc3ccc(CN4CCN(C)CC4)cc3C2)c(O)cc1O` [Onalespib] (top concentration tested 2500 nM), the drug sensitivity score in test [1] came out at 7.91; in test [2], 18.9; in test [3], 20.9; in test [4] it was 24.5.

With `COC[C@H](NC(=O)c1cnc(C)s1)C(=O)N[C@@H](COC)C(=O)N[C@@H](Cc1ccccc1)C(=O)[C@@]1(C)CO1` [Oprozomib] (top concentration tested 2500 nM), the drug sensitivity score in test [1] was determined as 21.5; in test [2] it was 28.3; in test [3], 23.6; in test [4] it was 28.8.
